Data: article PMC7830757, “An Anti-Inflammatory 2,4-Cyclized-3,4-Secospongian Diterpenoid and Furanoterpene-Related Metabolites of a Marine Sponge Spongia sp. from the Red Sea” (Marine Drugs, 2021)
Read-outs that look alike come from different tables or passages of the source.

Legend:
[1] = test system: fMLF/CB-induced human neutrophils (elastase release); assay: Elastase release in fMLF/CB-induced human neutrophils; type: cell-based; details: Neutrophil; for inhibition at 10 µM: Homo sapiens, percentage of inhibition at 10 μM, read-out: Elastase Inh %; for IC50: fMLF/CB-induced human neutrophils
Description: (§1) Human neutrophils were isolated from the blood of healthy adult volunteers and enriched by using dextran sedimentation, Ficoll–Hypaque gradient centrifugation, and hypotonic lysis, as described previously. Then, neutrophils were incubated in Ca^2+-free HBSS buffer (pH 7.4, ice-cold).
Neutrophils (6 × 10^5 cells/mL) incubated (with 100 μM MeO-Suc-Ala-Ala-Pro-Val-p- nitroanilide and 1 mM Ca^2+) in HBSS at 37 °C were treated with DMSO or the tested compound for 5 min. Neutrophils were, then, activated with fMLF (100 nM)/CB (0.5 μg/mL) for 10 min. The change of elastase release was spectrophotomically measured at 405 nm (U-3010, Hitachi, Tokyo, Japan).

[2] = test system: fMLF/CB-induced human neutrophils (superoxide anion generation); assay: Superoxide anion generation in fMLF/CB-induced human neutrophils; type: cell-based; details: Neutrophil; for inhibition at 10 µM: Homo sapiens, percentage of inhibition at 10 μM, read-out: Superoxide Anion Inh %; for IC50: fMLF/CB-induced human neutrophils
Description: as §1
Neutrophils (6 × 10^5 cells/mL) incubated (with 0.6 mg/mL ferricytochrome c and 1 mM Ca^2+) in HBSS at 37 °C were treated with DMSO (as control) or tested compound for 5 min. Neutrophils were primed by 1 μg/mL cytochalasin B (CB) for 3 min before being activated by 100 nM fMLF for 10 min. The change of superoxide anion generation was spectrophotomically measured at 550 nm (U-3010, Hitachi, Tokyo, Japan). LY294002 [2-(4-morpholinyl)-8-phenyl-1(4H)-benzopyran- 4-one] was used as a positive control.

[3] = mean ± SEM (n ≥ 3), read-out: Elastase IC50
[4] = mean ± SEM (n ≥ 3), read-out: Superoxide Anion IC50
[5] = dash per footnote b, read-out: Elastase IC50 (dash class)
[6] = dash per footnote b, read-out: Superoxide Anion IC50 (dash class)

IC50 [1, 3] | IC50 [2, 4] | IC50 [1, 5] | IC50 [2, 6] | SMILES | inhibition at 10 µM ([1]; mean ± SEM (n ≥ 3)) | inhibition at 10 µM ([2]; mean ± SEM (n ≥ 3))
4.07 µM | 3.37 µM | – | – | CC12CCC3C(C)(C1CCc1cocc12)C(O)C1(O)C(=O)OCC31C (centres unmarked) [Compound 1, 17-dehydroxysponalactone] | 90.3% | 91.4%
– | – | > 10 µM | > 10 µM | CC(=CCCc1ccoc1)CCC=C(C)CCC(O)C1(C)CCC(=O)O1 (stereo not drawn) [Compound 4, 16-epi-irciformonin G] | -1.07% | 2.61%
– | – | > 10 µM | > 10 µM | CC1=C(O)C(=O)CC2(C)C1CCC1(CO)c3cocc3CCC12 (centres unmarked) [Compound 6, 18-nor-3,17-dihydroxyspongia-3,13(16),14-trien-2-one] | 19.2% | 9.44%

The remaining lines, values behind:

SMILES | IC50 [1, 3] | IC50 [2, 4] | IC50 [1, 5] | IC50 [2, 6] | inhibition at 10 µM ([1]; mean ± SEM (n ≥ 3)) | inhibition at 10 µM ([2]; mean ± SEM (n ≥ 3))
C/C(=C\CCc1ccoc1)CCC(=O)O [Compound 2, (E)-7-(furan-3-yl)-4-methylhept-4-enoic acid] | – | – | > 10 µM | > 10 µM | 14% | 3.47%
C/C(=C\CC(=O)NO)CCCc1ccoc1 [Compound 3, spongiafuranohydroxamic acid A] | – | – | > 10 µM | > 10 µM | 18% | 8.85%
C/C(=C\CCc1ccoc1)CCC(=O)N[C@H]1CCOC1=O [Compound 5, (−)-sponalisolide B] | – | 5.31 µM | > 10 µM | – | 35.2% | 67.1%
CC(C)CCC[C@@H](C)[C@H]1CC[C@H]2C3=CC(=O)[C@@]4(O)C[C@@H](O)CC[C@]4(C)[C@H]3CC[C@]12C [Compound 7, cholesta-7-ene-3β,5α-diol-6-one] | – | – | > 10 µM | > 10 µM | 25.9% | 12.8%
O=c1cc(N2CCOCC2)oc2c(-c3ccccc3)cccc12 [LY294002, 2-(4-morpholinyl)-8-phenyl-1(4H)-benzopyran-4-one, reference compound] | 2.58 µM | 1.88 µM | – | – | 77.6% | 90.3%
